From US8435962B2, “Triacetyl-3-hydroxyphenyladenosine and its use for regulating blood fat” (Institute of Mataria Medica, Chinese Academy of Medical …, priority 2009, dated 2013)

Tests used:
hyperlipidemia hamsters [1] = experiment: Effects on hepatic SOD activity and MDA concentration in hyperlipidemic hamsters' livers; format: in vivo, hamster; conditions: 4 weeks
Description: (§2) After a week of accommodation, except control group (n=12) all the hamsters (n=72) were fed with high-fat laboratory chow.
(§3) After four weeks high-fat diet modeling, rats were treated with different drugs by intragastric administration. Control animals received an equal volume of vehicle.
(§4) At the end of 4 weeks drug treatment, animals were fasted for 12 hours (10 of each group). The next day, they were anesthetized by intraperitoneal injection of pentobarbitale sodium (45 mg/kg). Blood samples were collected from the abdominal aorta within 15 min, and plasma was separated. Plasma TC, TG, HDL-C, LDL-C, ALT, FFA were detected. Liver and the retroperitoneal fat were separated and weighed, the liver and fat index were calculated. Liver SOD and MDA were detected by kit after homogenized. The left hamsters (10 each group) drug treatment was withdrawn while high-fat diet modeling continued. Two weeks later, blood sample was collected from the orbit and serum TC and TG were detected.

hyperlipidemia rats [2] = experiment: Effects on hepatic SOD activity and MDA content of hyperlipidemia rats; format: in vivo, rat; conditions: 4 weeks
Description: (§1) Control animals received an equal volume of vehicle.

hyperlipidemia hamsters [3] = experiment: Effect on retroperitoneal fat of hyperlipidemia hamsters; format: in vivo, hamster; conditions: 2 mg/kg intragastric, 4 weeks
Description: as §2, §3, §4

hyperlipidemia rats [4] = experiment: Serum lipid of hyperlipidemia rats after withdrawal from drugs for 2 weeks; format: in vivo, rat; conditions: rats, 2 weeks after drug withdrawal, high-fat diet continued
Description: (§5) After a week of accommodation, except control group (20 rat), all the rats (120 rats) were fed with high-fat laboratory chow.
as §3
(§6) At the end of 4 weeks drug treatment, animals were fasted for 12 hours before anesthetizing by intraperitoneal injection of pentobarbitale sodium (45 mg/kg), and anticoagulated by 100 U/kg heparin through caudal vein injection. Blood samples were collected from the abdominal aorta within 15 min, and serum was separated. Serum TC, TG, HDL-C, LDL-C, ALT, FFA were detected. Liver and the fat pad behind the belly were separated and weighed, the liver and retroperitoneal fat were weighed too. […] The left rats (10 rats each group) drug treatment was withdrawn while high-fat diet modeling continued. Two weeks later, blood sample was collected from the orbit, and serum TC, TG were detected.

hyperlipidemia rats [5] = experiment: Effects on liver weight and serum ALT activity of hyperlipidemia rats; conditions: 4 weeks
Description: as §5, §3, §6

hyperlipidemia hamsters [6] = experiment: Serum lipid level in hyperlipidemic hamsters after drug discontinuance (2 weeks); format: in vivo, hamster; conditions: hamsters, 2 weeks after drug discontinuance, high-fat diet continued
Description: as §2, §3, §4

hyperlipidemia rats [7] = experiment: Effects on plasma lipid in hyperlipidemia rats (high-fat diet); format: in vivo, rat; conditions: 4 weeks;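 note: rats kept on high-fat chow for 4 weeks before dosing, serum taken from abdominal aorta after a 12 h fast at end of treatment, controls given vehicle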
Description: as §5, §3, §6

hyperlipidemia hamsters [8] = experiment: Effects on plasma lipid in hyperlipidemia hamsters (high-fat diet); format: in vivo, hamster; conditions: 4 weeks;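 note: hamsters given high-fat chow for four weeks, then dosed by gavage, plasma lipids measured in abdominal aortic blood after a 12 h fast, compared with vehicle-treated controls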
Description: as §2, §3, §4

hyperlipidemia rats [9] = experiment: Effects on retroperitoneal fat weight of hyperlipidemic rats; format: in vivo, rat; conditions: hyperlipidemic rats, 4 weeks
Description: as §1

hyperlipidemia hamsters [10] = conditions: hamster, in vivo, 50 mg/kg
Description: as §2, §3, §4

hyperlipidemia rats [11] = conditions: rat, in vivo, 50 mg/kg
Description: as §5, §3, §6

CCC(C)(C)C(=O)O[C@H]1C[C@@H](C)C=C2C=C[C@H](C)[C@H](CC[C@@H]3C[C@@H](O)CC(=O)O3)[C@H]21 [Simvastatin, reference compound]
hepatic MDA (hyperlipidemia hamsters [1]; 2 mg/kg intragastric): 4.48 ± 0.96 nmol/mg protein | hepatic SOD (hyperlipidemia hamsters [1]; 2 mg/kg intragastric): 94.6 ± 38.0 U/g pr | hepatic MDA (hyperlipidemia rats [2]; 2 mg/kg intragastric): 9.29 ± 2.73 nmol/mg protein | hepatic SOD (hyperlipidemia rats [2]; 2 mg/kg intragastric): 99.5 ± 20.2 U/g pr | retroperitoneal fat (hyperlipidemia hamsters [3]): 0.97 ± 0.19 g/100g | TC (hyperlipidemia rats [4]; 2 mg/kg): 2.14 ± 0.33 mmol/L | TG (hyperlipidemia rats [4]; 2 mg/kg): 0.94 ± 0.24 mmol/L | Liver weight (hyperlipidemia rats [5]; 'rat' in hamster Table 9, 2 mg/kg intragastric): 3.96 ± 0.93 g/100 g body weight | Liver weight (hyperlipidemia rats [5]; hyperlipidemia rats, 2 mg/kg intragastric): 3.96 ± 0.93 g/100 g body weight | TC (hyperlipidemia hamsters [6]; 2 mg/kg): 4.91 ± 1.18 mmol/L | TG (hyperlipidemia hamsters [6]; 2 mg/kg): 4.58 ± 1.01 mmol/L | FFA (hyperlipidemia rats [7]; 2 mg/kg intragastric): 0.96 ± 0.39 mmol/L | HDL-C (hyperlipidemia rats [7]; 2 mg/kg intragastric): 0.59 ± 0.13 mmol/L | HDL/LDL (hyperlipidemia rats [7]; 2 mg/kg intragastric): 0.50 ± 0.16 | LDL-C (hyperlipidemia rats [7]; 2 mg/kg intragastric): 1.24 ± 0.24 mmol/L | TC (hyperlipidemia rats [7]; 2 mg/kg intragastric): 2.22 ± 0.36 mmol/L | TG (hyperlipidemia rats [7]; 2 mg/kg intragastric): 0.76 ± 0.21 mmol/L | HDL-C (hyperlipidemia hamsters [8]; 2 mg/kg intragastric): 1.12 ± 0.21 mmol/L | HDL/LDL (hyperlipidemia hamsters [8]; 2 mg/kg intragastric): 0.45 ± 0.12 | LDL-C (hyperlipidemia hamsters [8]; 2 mg/kg intragastric): 2.57 ± 0.53 mmol/L | TC (hyperlipidemia hamsters [8]; 2 mg/kg intragastric): 4.46 ± 1.63 mmol/L | TG (hyperlipidemia hamsters [8]; 2 mg/kg intragastric): 3.20 ± 1.70 mmol/L | Fat weight (retroperitoneal fat) (hyperlipidemia rats [9]; 2 mg/kg intragastric): 0.70 ± 0.28 g/100 g body weight

CC(C)OC(=O)C(C)(C)Oc1ccc(C(=O)c2ccc(Cl)cc2)cc1 [Fenofibrate, reference compound]
hepatic SOD (hyperlipidemia hamsters [1]; 50 mg/kg intragastric): 94.0 ± 16.3 U/g pr | ALT (hyperlipidemia hamsters [10]): 97.3 ± 37.8 U/L | serum ALT (hyperlipidemia rats [11]): 40.3 ± 18.0 U/L | hepatic MDA (hyperlipidemia rats [2]; 50 mg/kg intragastric): 9.35 ± 2.4 nmol/mg protein | hepatic SOD (hyperlipidemia rats [2]; 50 mg/kg intragastric): 103.6 ± 27.9 U/g pr | TC (hyperlipidemia rats [4]; 50 mg/kg): 2.08 ± 0.49 mmol/L | TG (hyperlipidemia rats [4]; 50 mg/kg): 1.03 ± 0.19 mmol/L | Liver weight (hyperlipidemia rats [5]; 'rat' in hamster Table 9, 50 mg/kg intragastric): 4.08 ± 0.36 g/100 g body weight | Liver weight (hyperlipidemia rats [5]; hyperlipidemia rats, 50 mg/kg intragastric): 4.08 ± 0.36 g/100 g body weight | TC (hyperlipidemia hamsters [6]; 50 mg/kg): 5.29 ± 2.13 mmol/L | TG (hyperlipidemia hamsters [6]; 50 mg/kg): 4.16 ± 0.86 mmol/L | FFA (hyperlipidemia rats [7]; 50 mg/kg intragastric): 1.13 ± 0.30 mmol/L | HDL-C (hyperlipidemia rats [7]; 50 mg/kg intragastric): 0.59 ± 0.17 mmol/L | HDL/LDL (hyperlipidemia rats [7]; 50 mg/kg intragastric): 0.53 ± 0.16 | LDL-C (hyperlipidemia rats [7]; 50 mg/kg intragastric): 1.16 ± 0.28 mmol/L | TC (hyperlipidemia rats [7]; 50 mg/kg intragastric): 2.23 ± 0.53 mmol/L | TG (hyperlipidemia rats [7]; 50 mg/kg intragastric): 0.70 ± 0.19 mmol/L | HDL-C (hyperlipidemia hamsters [8]; 50 mg/kg intragastric): 1.48 ± 0.40 mmol/L | HDL/LDL (hyperlipidemia hamsters [8]; 50 mg/kg intragastric): 0.50 ± 0.13 | LDL-C (hyperlipidemia hamsters [8]; 50 mg/kg intragastric): 3.04 ± 0.82 mmol/L | TC (hyperlipidemia hamsters [8]; 50 mg/kg intragastric): 4.76 ± 1.58 mmol/L | TG (hyperlipidemia hamsters [8]; 50 mg/kg intragastric): 3.80 ± 1.04 mmol/L | Fat weight (retroperitoneal fat) (hyperlipidemia rats [9]; 50 mg/kg intragastric): 0.68 ± 0.16 g/100 g body weight
